Ten compounds from EP4663632A1, “COMPOUNDS USEFUL FOR THE MODULATION OF THE ACTIVITY OF STING” (Sulis Therapeutics ApS, priority 2024, dated 2025) can be followed below.

Assay [1] addresses C-terminal domain (CTD) of human STING (Homo sapiens, UniProt Q86WV6). Description: STING binding FP assay III. The settings on record: 10 nM STING (FP assay III according to the text); read-out: STING binding FP assay II, IC50. On the set-up: recombinant human STING protein (155-379). How it is done: The interaction between molecules and the C-terminal domain (CTD) of human STING was evaluated using a competition binding assay. In this assay, recombinant human STING protein (155-379) and a STING binding fluorescent probe were employed. Upon binding of the probe to STING, the rotation of the fluorescent probe is slowed due to the larger molecular size of the protein-bound complex. As a result, emitted light retains its plane of polarization, leading to an increase in fluorescence polarization. Molecules competing for the probe binding site displace the probe, which leads to rapid randomization of the polarization plane of the emitted light and a subsequent decrease in measured fluorescence polarization signal. Change in polarization was measured, allowing a comparative evaluation of the binding affinities of different compounds to the target protein.
The assay was performed in 96-well plates (ThermoFisher, cat.# 237108) containing 100µl : 10 µL test compound in 10% DMSO and buffer A (150 mM NaCl, 50 mM HEPES pH 7.5, 1 mM DTT) + 90 µL prepared master mix solution of: 4 nM fluorescein-labelled STING ligand (Probe 1; synthesis described above) in buffer A + 0.055% Tween-20 (v/v) and 35 nM STING in buffer A. Post mixing, plates were agitated at 600rpm and incubated for 20 min at room temperature. Subsequent measurements of the fluorescence polarization signal were made on a BioTek Synergy-H1 plate reader, using a polarization filter; Exc: 485/20 nm, Em: […]) with a gain-setting of 75. IC50 values were determined using a standard non-linear regression four-parameter curve fit in Graphpad Prism.
The procedure for STING binding FP assay III is the same as described for STING binding FP assay I, except for a lower STING concentration. In STING binding FP assay III, a concentration of 10 nM STING in buffer A was used.

The next assay has as its target STING (Homo sapiens, UniProt Q86WV6). Description: Western Blot analysis of inhibition of STING activation in HFF-1 cells. Format: cell-based. The settings on record: for STING, TBK1 and IRF1 phosphorylation: 2 h or 5 h; for phosphorylation of STING, IRF1 or TBK1 (agonism): compound as single agent, no activation. Also noted: host or cells: HFF-1 human foreskin fibroblasts. How it is done: To assess whether S1 STING ligands inhibit STING activation, primary human skin fibroblasts (Figure 5) or HFF-1 cells (Figure 6) were treated with various compounds which comprise only an S1 ligand domain and a Linker domain before undergoing Western Blot analysis as described below.
The cells were lysed and analysed on WB. […] The WB membrane was probed for p-STING, STING, p-IRF3, p-TBK1, and Vinculin.
(A western blot detects proteins with antibodies after separation by electrophoresis.)

Setting [2] is: 5 µM for 15 min prior to 300 nM diABZI.
Where [3] appears, read: 5 µM for 15 min prior to 8 µg/mL cGAMP.

Chain of C-terminal domain (CTD) of human STING (Q86WV6 155-379): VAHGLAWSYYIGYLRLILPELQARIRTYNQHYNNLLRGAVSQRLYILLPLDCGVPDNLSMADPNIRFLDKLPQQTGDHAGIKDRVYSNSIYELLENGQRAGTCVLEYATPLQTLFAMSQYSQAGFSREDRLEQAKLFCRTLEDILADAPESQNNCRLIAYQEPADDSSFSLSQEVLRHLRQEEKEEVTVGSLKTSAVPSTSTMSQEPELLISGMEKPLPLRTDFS
Chain of STING (Q86WV6 whole entry, the tested form may be a part): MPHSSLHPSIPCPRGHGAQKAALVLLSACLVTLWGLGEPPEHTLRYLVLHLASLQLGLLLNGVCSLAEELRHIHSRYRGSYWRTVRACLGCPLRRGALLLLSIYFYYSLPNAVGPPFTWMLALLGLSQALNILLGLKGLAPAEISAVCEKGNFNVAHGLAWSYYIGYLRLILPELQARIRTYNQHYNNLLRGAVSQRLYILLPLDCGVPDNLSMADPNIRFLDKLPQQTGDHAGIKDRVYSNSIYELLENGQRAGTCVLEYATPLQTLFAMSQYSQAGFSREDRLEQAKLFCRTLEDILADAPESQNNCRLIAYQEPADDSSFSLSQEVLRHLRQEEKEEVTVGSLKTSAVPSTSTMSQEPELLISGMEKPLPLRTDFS

For the compound `CCn1nc(C)cc1C(=O)N=c1n(C)c2cc(C(N)=O)ccc2n1CCC(CCn1c(=NC(=O)c2cc(C)nn2CC)n(C)c2cc(C(N)=O)ccc21)OCC(=O)NCCOCCOCCOCCOCCC(=O)NCCOCCOCCOCC(=O)N[C@H]1C[C@@H](C(=O)N[C@@H]2CCCc3ccccc32)N(C(=O)[C@@H](NC(=O)[C@H](C)NC)C2CCCCC2)C1` (some centres unmarked) [Example 18], the IC50 in assay [1] is 3.5 nM.

Turning to `CCn1nc(C)cc1C(=O)N=c1n(C)c2cc(C(N)=O)ccc2n1CCC(CCn1c(=NC(=O)c2cc(C)nn2CC)n(C)c2cc(C(N)=O)ccc21)OCC(=O)NCCOCCOCCOCCOCCC(=O)NCCC1CCN(c2ccc(C(=O)NC3CCC(=O)NC3=O)c(F)c2)CC1` (centres unmarked) [Example 38, N-(2-{1-[4-(N-2,6-Dioxo-3-piperidylcarbamoyl)-3-fluorophenyl]-4-piperidyl}ethyl)15-{[(3-{5-carbamoyl-2-[(1-ethyl-3-methyl-5-pyrazolyl)carbonylimino]-3-methyl-2,3-dihydro-1 H-1 ,3-benzimidazol-1-yl}-1-(2-{5-carbamoyl-2-[(1-ethyl-3-methyl-5-pyrazolyl)carbonylimino]-3-methyl-2,3-dihydro-1 H-1 ,3-benzimidazol-1-yl}ethyl)propoxy)methyl]carbonylamino}-4,7,10,13-tetraoxapentadecanamide], the IC50 in assay [1] was 2.6 nM.

On to “N-(2-{1-[4-(N-2,6-Dioxo-3-piperidylcarbamoyl)-3-chlorophenyl]-4-piperidyl}ethyl)15-{[(3-{5-carbamoyl-2-[(1-ethyl-3-methyl-5-pyrazolyl)carbonylimino]-3-methyl-2,3-dihydro-1H-1 ,3-benzimidazol-1-yl}-1-(2-{5-carbamoyl-2-[(1-ethyl-3-methyl-5-pyrazolyl)carbonylimino]-3-methyl-2,3-dihydro-1H-1 ,3-benzimidazol-1-yl}ethyl)propoxy)methyl]carbonylamino}-4,7,10,13-tetraoxapentadecanamide [Example 37]”, for which, in assay [1], the IC50 was determined as 3.7 nM.

Consider `CCn1nc(C)cc1C(=O)N=c1n(C)c2cc(C(N)=O)ccc2n1CCC(CCn1c(=NC(=O)c2cc(C)nn2CC)n(C)c2cc(C(N)=O)ccc21)OCC(=O)N1CCC[C@H]1c1ccccc1` (stereo partly drawn) [Example A25, 1-(3-{2-[(S)-2-Phenyl-1-pyrrolidinyl]-2-oxoethoxy}-5-{5-carbamoyl-2-[(1-ethyl-3-methyl-5-pyrazolyl)carbonylimino]-3-methyl-2,3-dihydro-1H-1,3-benzimidazol-1-yl}pentyl)-2-[(1-ethyl-3-methyl-5-pyrazolyl)carbonylimino]-3-methyl-2,3-dihydro-1H-1,3-benzimidazole-5-carboxamide], for which the “STING, TBK1 and IRF1 phosphorylation” value is recorded as “lower compared to cells treated with diABZI c3 alone” at STING (setting [2]) and “lower compared to cells treated with cGAMP alone (with the exception of TBK1 in lane A25)” on STING (setting [3]). Also, the “phosphorylation of STING, IRF1 or TBK1 (agonism)” value at STING is recorded as “no phosphorylation of STING, IRF1 or TBK1 was observed”.

Take `CCn1nc(C)cc1C(=O)N=c1n(C)c2cc(C(N)=O)ccc2n1CCC(CCn1c(=NC(=O)c2cc(C)nn2CC)n(C)c2cc(C(N)=O)ccc21)OCC(=O)NCCOCCOCCOCCOCCC(=O)NCCC1CCN(c2ccc(C(=O)NC3CCC(=O)NC3=O)c(OC)c2)CC1` (centres unmarked) [Example 35, N-(2-{1-[4-(N-2,6-Dioxo-3-piperidylcarbamoyl)-3-methoxyphenyl]-4-piperidyl}ethyl)15-{[(3-{5-carbamoyl-2-[(1-ethyl-3-methyl-5-pyrazolyl)carbonylimino]-3-methyl-2,3-dihydro-1H-1 ,3-benzimidazol-1-yl}-1-(2-{5-carbamoyl-2-[(1-ethyl-3-methyl-5-pyrazolyl)carbonylimino]-3-methyl-2,3-dihydro-1H-1 ,3-benzimidazol-1-yl}ethyl)propoxy)methyl]carbonylamino}-4,7,10,13-tetraoxapentadecanamide]: the IC50 in assay [1] is 10.3 nM.

Regarding `CCn1nc(C)cc1C(=O)N=c1n(C)c2cc(C(N)=O)ccc2n1CCC(CCn1c(=NC(=O)c2cc(C)nn2CC)n(C)c2cc(C(N)=O)ccc21)OCC(=O)NCCOCCOCCOCCOCCOCC(=O)N[C@H]1C[C@@H](C(=O)N[C@@H]2CCCc3ccccc32)N(C(=O)[C@@H](NC(=O)[C@H](C)NC)C2CCCCC2)C1` (some centres unmarked) [Example 13], in assay [1], the IC50 stood at 4.1 nM.

For `CCn1nc(C)cc1C(=O)N=c1n(C)c2cc(C(N)=O)ccc2n1CCC(CCn1c(=NC(=O)c2cc(C)nn2CC)n(C)c2cc(C(N)=O)ccc21)OCC(=O)NCCOCCOCCOCCOCCC(=O)N1CCN(C2CCN(c3ccc(C(=O)NC4CCC(=O)NC4=O)c(OC)c3)CC2)CC1` (centres unmarked) [Example 36, N-[15-(4-{1-[4-(N-2,6-Dioxo-3-piperidylcarbamoyl)-3-methoxyphenyl]-4-piperidyl}-1-piperazinyl)-15-oxo-3,6,9,12-tetraoxapentadecyl](3-{5-carbamoyl-2-[(1-ethyl-3-methyl-5-pyrazolyl)carbonylimino]-3-methyl-2,3-dihydro-1H-1 ,3-benzimidazol-1-yl}-1-(2-{5-carbamoyl-2-[(1-ethyl-3-methyl-5-pyrazolyl)carbonylimino]-3-methyl-2,3-dihydro-1 H-1 ,3-benzimidazol-1-yl}ethyl)propoxy)acetamide], in assay [1], the IC50 was found to be 10 nM.

Take `CCn1nc(C)cc1C(=O)N=c1n(C)c2cc(C(N)=O)ccc2n1CCC(CCn1c(=NC(=O)c2cc(C)nn2CC)n(C)c2cc(C(N)=O)ccc21)OCC(=O)NCCOCCOCCOCCOCCC(=O)NCCOCCNc1ccc(C(=O)NC2CCC(=O)NC2=O)c(OC)c1` (centres unmarked) [Example 34, N-(2-{2-[4-(N-2,6-Dioxo-3-piperidylcarbamoyl)-3-anisidino]ethoxy}ethyl)15-{[(3-{5-carbamoyl-2-[(1-ethyl-3-methyl-5-pyrazolyl)carbonylimino]-3-methyl-2,3-dihydro-1H-1 ,3-benzimidazol-1-yl}-1-(2-{5-carbamoyl-2-[(1-ethyl-3-methyl-5-pyrazolyl)carbonylimino]-3-methyl-2,3-dihydro-1H-1 ,3-benzimidazol-1-yl}ethyl)propoxy)methyl]carbonylamino}-4,7,10,13-tetraoxapentadecanamide]: the IC50 in assay [1] was 3.7 nM.

In the case of `CCn1nc(C)cc1C(=O)N=c1n(C)c2cc(C(N)=O)ccc2n1CCC(CCn1c(=NC(=O)c2cc(C)nn2CC)n(C)c2cc(C(N)=O)ccc21)OCC(=O)N1CCC[C@H]1C(=O)N1CCc2cc(OC)ccc2C1` (stereo partly drawn) [Example A26, 1-[3-(2-{(S)-2-[(6-Methoxy-1,2,3,4-tetrahydro-2-isoquinolyl)carbonyl]-1-pyrrolidinyl}-2-oxoethoxy)-5-{5-carbamoyl-2-[(1-ethyl-3-methyl-5-pyrazolyl)carbonylimino]-3-methyl-2,3-dihydro-1H-1,3-benzimidazol-1-yl}pentyl]-2-[(1-ethyl-3-methyl-5-pyrazolyl)carbonylimino]-3-methyl-2,3-dihydro-1H-1,3-benzimidazole-5-carboxamide], the “STING, TBK1 and IRF1 phosphorylation” value at STING (setting [2]) is “lower compared to cells treated with diABZI c3 alone”; at STING (setting [3]) it was “lower compared to cells treated with cGAMP alone”. The “phosphorylation of STING, IRF1 or TBK1 (agonism)” value on STING was “no phosphorylation of STING, IRF1 or TBK1 was observed”.

For `CCn1nc(C)cc1C(=O)Nc1nc2cc(C(N)=O)ccc2n1CCC(CCn1c(NC(=O)c2cc(C)nn2CC)nc2cc(C(N)=O)ccc21)OCC(=O)NCCOCCOCCOCC(=O)N[C@H](C(=O)N1C[C@H](O)C[C@H]1C(=O)NCc1ccc(-c2scnc2C)cc1)C(C)(C)C` [Example 4, N-[(S)-1-{[(2S,4R)-4-Hydroxy-2-({[p-(4-methyl-1,3-thiazol-5-yl)phenyl]methyl}carbamoyl)-1-pyrrolidinyl]carbonyl}-2,2-dimethylpropyl]11-[({3-[5-carbamoyl-2-(1-ethyl-3-methyl-5-pyrazolylcarbonylamino)-1H-1,3-benzimidazol-1-yl]-1-{2-[5-carbamoyl-2-(1-ethyl-3-methyl-5-pyrazolylcarbonylamino)-1H-1,3-benzimidazol-1-yl]ethyl}propoxy}methyl)carbonylamino]-3,6,9-trioxaundecanamide], the IC50 in assay [1] was 2.2 nM.

The term IC50 denotes the concentration needed to halve the response being measured.
